In US11712438B2, “Phenyl derivatives as PGE2 receptor modulators” (IDORSIA PHARMACEUTICALS LTD, priority 2017, dated 2023):

Columns and labels:
Assay in all cases: cell-based
[1] = target: EP4 (Homo sapiens, UniProt P35408);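 note: inhibition of PGE2-evoked (6 nM) cAMP accumulation in BT549 breast cancer cells endogenously expressing EP4, cAMP read by HTRF competitive immunoassay after 30 min at room temperature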
[2] = target: EP2 (Homo sapiens, UniProt P43116);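 note: SF295 glioblastoma cells with endogenous EP2 only, PGE2-stimulated cAMP accumulation read by HTRF competitive immunoassay, 45 min pre-incubation then 30 min at room temperature, IBMX in buffer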
[3] = target: PTRGER4 (EP4) (Homo sapiens, UniProt P35408);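 note: assay plate preincubated 15 min at 37 °C, after which PGE2 was added at 20 nM final and incubation continued 120 min at 37 °C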
[4] = target: PTGER2 (EP2) (Homo sapiens, UniProt P43116)
Chain of PTGER2 (EP2) (P43116 whole entry): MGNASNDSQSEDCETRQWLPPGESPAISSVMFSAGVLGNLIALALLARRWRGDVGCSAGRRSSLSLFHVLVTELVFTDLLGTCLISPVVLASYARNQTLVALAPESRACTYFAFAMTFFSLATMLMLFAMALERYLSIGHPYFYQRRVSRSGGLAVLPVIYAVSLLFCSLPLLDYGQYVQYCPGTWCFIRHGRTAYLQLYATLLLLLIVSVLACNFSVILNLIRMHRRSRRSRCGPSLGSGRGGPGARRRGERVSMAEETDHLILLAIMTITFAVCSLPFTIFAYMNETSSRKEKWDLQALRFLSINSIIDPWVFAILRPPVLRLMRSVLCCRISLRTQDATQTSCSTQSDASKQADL

Chain of EP4 (P35408 whole entry): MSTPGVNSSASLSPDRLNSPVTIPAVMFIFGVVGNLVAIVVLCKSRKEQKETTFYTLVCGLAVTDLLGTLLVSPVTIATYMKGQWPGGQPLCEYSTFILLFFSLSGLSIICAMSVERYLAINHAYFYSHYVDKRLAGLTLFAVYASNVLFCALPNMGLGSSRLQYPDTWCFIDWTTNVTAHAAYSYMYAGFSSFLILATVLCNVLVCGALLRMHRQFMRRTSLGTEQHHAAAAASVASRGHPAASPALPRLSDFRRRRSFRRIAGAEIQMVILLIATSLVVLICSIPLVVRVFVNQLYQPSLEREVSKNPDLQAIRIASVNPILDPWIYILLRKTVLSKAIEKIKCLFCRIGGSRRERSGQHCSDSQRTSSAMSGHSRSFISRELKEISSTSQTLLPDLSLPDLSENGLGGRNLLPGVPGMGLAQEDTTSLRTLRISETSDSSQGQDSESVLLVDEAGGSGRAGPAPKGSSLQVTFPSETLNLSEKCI
Chain of PTRGER4 (EP4) (P35408 whole entry): as above
Chain of EP2 (P43116 whole entry): as the sequence (P43116 whole entry) above

Row | Structure (SMILES) | IC50 [1] [nM] | IC50 [2] [nM] | IC50 [3] [nM] | IC50 [4] [nM]
1 | CC(C(=O)O)c1ccc(-c2cc(NCCc3ccc(Br)cc3)ncn2)s1 (racemic) [Example 159, rac-2-(5-{6-[2-(4-Bromo-phenyl)-ethylamino]-pyrimidin-4-yl}-thiophen-2-yl)-propionic acid] | 602 | 392 |  | 
2 | CCOc1cc(-c2cc(NCCc3ccc(SC)cc3OC)ncn2)sc1C(=O)O [Example 4, 3-Ethoxy-5-{6-[2-(2-methoxy-4-methylsulfanyl-phenyl)-ethylamino]-pyrimidin-4-yl}-thiophene-2-carboxylic acid] | 5 | 38 |  | 
3 | CCOc1cc(-c2cc(NCCc3cc(C)c(C)cc3OC)ncn2)sc1C(=O)O [Example 5, 3-Ethoxy-5-{6-[2-(2-methoxy-4,5-dimethyl-phenyl)-ethylamino]-pyrimidin-4-yl}-thiophene-2-carboxylic acid] | 6 | 45 |  | 
4 | COc1cc(SC)ccc1CCNc1cc(-c2ccc(C(=O)O)c(OC3CCC3)c2)ncn1 [Example 8, 2-Cyclobutoxy-4-{6-[2-(2-methoxy-4-methylsulfanyl-phenyl)-ethylamino]-pyrimidin-4-yl}-benzoic acid] | 262 | 340 |  | 
5 | Cn1[nH]c(=O)c2ccc(-c3cc(NCCc4ccc(Br)cc4)ncn3)cc21 [Example 9, 6-{6-[2-(4-Bromo-phenyl)-ethylamino]-pyrimidin-4-yl}-1-methyl-1,2-dihydro-indazol-3-one] | 1080 | 642 |  | 
6 | COc1cc(-c2cc(NCCc3ccc(Br)cc3)ncn2)ccc1O [Example 10, 4-{6-[2-(4-Bromo-phenyl)-ethylamino]-pyrimidin-4-yl}-2-methoxy-phenol] | 798 | 931 |  | 
7 | Oc1c(F)cc(-c2cc(NCCc3ccc(Br)cc3)ncn2)cc1F [Example 12, 4-{6-[2-(4-Bromo-phenyl)-ethylamino]-pyrimidin-4-yl}-2,6-difluoro-phenol] | 617 | 885 |  | 
8 | COc1cc(-c2cc(NCCc3ccc(Br)cc3)ncn2)sc1C1(O)COC1 [Example 13, 3-(5-{6-[2-(4-Bromo-phenyl)-ethylamino]-pyrimidin-4-yl}-3-methoxy-thiophen-2-yl)-oxetan-3-ol] | 636 | 294 |  | 
9 | O=c1[nH]c(-c2ccc(-c3cc(NCCc4ccc(Br)cc4)ncn3)cc2)no1 [Example 14, 3-(4-{6-[2-(4-Bromo-phenyl)-ethylamino]-pyrimidin-4-yl}-phenyl)-[1,2,4]oxadiazol-5(4H)-one] | 262 | 257 |  | 
10 | COc1cc(-c2cc(NCCc3ccc(Br)cc3)ncn2)ccc1OCCO [Example 16, 2-(4-{6-[2-(4-Bromo-phenyl)-ethylamino]-pyrimidin-4-yl}-2-methoxy-phenoxy)-ethanol] | 914 | 795 |  | 
11 | Cc1ccc(CCNc2cc(-c3ccc(C(=O)O)c(OC4CCC4)c3)ncn2)cc1C [Example 20, 2-Cyclobutoxy-4-{6-[2-(3,4-dimethyl-phenyl)-ethylamino]-pyrimidin-4-yl}-benzoic acid] | 574 | 498 | 446 | 
12 | O=C(O)c1sc(-c2cc(NCCc3ccc(C(F)(F)F)cc3)ncn2)cc1F [Example 22, 3-Fluoro-5-{6-[2-(4-trifluoromethyl-phenyl)-ethylamino]-pyrimidin-4-yl}-thiophene-2-carboxylic acid] | 68 | 759 | 187 | 
13 | O=C(O)c1sc(-c2cc(NCCc3c(F)cc(Br)cc3F)ncn2)cc1OCCO [Example 32, 5-{6-[2-(4-Bromo-2,6-difluoro-phenyl)-ethylamino]-pyrimidin-4-yl}-3-(2-hydroxy-ethoxy)-thiophene-2-carboxylic acid] | 30 | 55 |  | 
14 | Oc1cc(-c2ccc(-c3cc(NCCc4c(F)cc(Br)cc4F)ncn3)cc2)on1 [Example 33, 5-(4-{6-[2-(4-Bromo-2,6-difluoro-phenyl)-ethylamino]-pyrimidin-4-yl}-phenyl)-isoxazol-3-ol] | 149 | 1130 | 156 | 
15 | O=c1nc(-c2ccc(-c3cc(NCCc4c(F)cc(Br)cc4F)ncn3)cc2)o[nH]1 [Example 34, 5-(4-(6-((4-Bromo-2,6-difluorophenethyl)amino)pyrimidin-4-yl)phenyl)-[1,2,4]oxadiazol-3(2H)-one] | 676 | 437 | 261 | 
16 | CCOc1cc(-c2cc(NCCc3c(OC)cc(Br)cc3OC)ncn2)ccc1C(=O)O [Example 52, 4-{6-[2-(4-Bromo-2,6-dimethoxy-phenyl)-ethylamino]-pyrimidin-4-yl}-2-ethoxy-benzoic acid] | 626 | 343 |  | 
17 | CCOc1cc(-c2cc(NCCc3ccc(C)cc3C)ncn2)sc1C(=O)O [Example 57, 5-{6-[2-(2,4-Dimethyl-phenyl)-ethylamino]-pyrimidin-4-yl}-3-ethoxy-thiophene-2-carboxylic acid] | 166 | 295 | 1160 | 

Row | Structure (SMILES) | IC50 [1] [nM] | IC50 [2] [nM] | IC50 [3] [nM] | IC50 [4] [nM]
18 | CCOc1cc(-c2cc(NCCc3ccc(OC)cc3)ncn2)sc1C(=O)O [Example 60, 3-Ethoxy-5-{6-[2-(4-methoxy-phenyl)-ethylamino]-pyrimidin-4-yl}-thiophene-2-carboxylic acid] | 81 | 376 | 139 | 
19 | CCOc1cc(-c2cc(NCCc3ccc(F)cc3)ncn2)sc1C(=O)O [Example 80, 3-Ethoxy-5-{6-[2-(4-fluoro-phenyl)-ethylamino]-pyrimidin-4-yl}-thiophene-2-carboxylic acid] | 366 | 255 |  | 
20 | CCOc1cc(-c2cc(NCCc3ccc(Br)cc3N(C)C)ncn2)sc1-c1noc(=O)[nH]1 [Example 109, 3-(5-{6-[2-(4-Bromo-2-dimethylamino-phenyl)-ethylamino]-pyrimidin-4-yl}-3-ethoxy-thiophen-2yl)-[1,2,4]oxadiazol-5(4H)-one] | 254 | 558 |  | 
21 | CCOc1cc(-c2cc(NCCc3ccc(Br)cc3Cl)ncn2)sc1-c1noc(=O)[nH]1 [Example 124, 3-(5-{6-[2-(4-Bromo-2-chloro-phenyl)-ethylamino]-pyrimidin-4-yl}-3-ethoxy-thiophen-2-yl)-[1,2,4]oxadiazol-5(4H)-one] | 36 | 46 |  | 
22 | CCOc1cc(-c2cc(NCCc3ccc(Br)cc3)ncn2)sc1-c1noc(C2COC2)n1 [Example 142, [2-(4-Bromo-phenyl)-ethyl]-{6-[4-ethoxy-5-(5-oxetan-3-yl-[1,2,4]oxadiazol-3-yl)-thiophen-2-yl]-pyrimidin-4-yl}-amine] | 571 | 700 |  | 
23 | CCOc1cc(-c2cc(NCCc3ccc(Br)cc3)ncn2)sc1-c1noc(CO)n1 [Example 143, [3-(5-{6-[2-(4-Bromo-phenyl)-ethylamino]-pyrimidin-4-yl}-3-ethoxy-thiophen-2-yl)-[1,2,4]oxadiazol-5-yl]-methanol] | 344 | 604 |  | 
24 | CCOc1cc(-c2cc(NCCc3ccc(Br)cc3)ncn2)sc1C(C)O (centres unmarked) [Example 145, 1-(5-{6-[2-(4-Bromo-phenyl)-ethylamino]-pyrimidin-4-yl}-3-ethoxy-thiophen-2-yl)-ethanol] | 690 | 1120 |  | 
25 | O=c1[nH]c(-c2cccc(-c3cc(NCCc4ccc(Br)cc4)ncn3)c2)no1 [Example 147, 3-(3-{6-[2-(4-Bromo-phenyl)-ethylamino]-pyrimidin-4-yl}-phenyl)-[1,2,4]oxadiazol-5(4H)-one] | 834 | 490 |  | 
26 | CCCc1cc(-c2cc(NCCc3c(F)cc(Br)cc3F)ncn2)ccc1C(N)=O [Example 303, 4-{6-[2-(4-Bromo-2,6-difluoro-phenyl)-ethylamino]-pyrimidin-4-yl}-2-propyl-benzamide] |  |  | 163 | 44
27 | CCCc1cc(-c2cc(NCCc3c(F)cc(Br)cc3F)ncn2)ccc1C(=O)NCC [Example 305, 4-{6-[2-(4-Bromo-2,6-difluoro-phenyl)-ethylamino]-pyrimidin-4-yl}-N-ethyl-2-propyl-benzamide] |  |  | 628 | 203
28 | CCCc1cc(-c2cc(NCCc3c(F)cc(Br)cc3F)ncn2)ccc1C(=O)NCCO [Example 306, 4-{6-[2-(4-Bromo-2,6-difluoro-phenyl)-ethylamino]-pyrimidin-4-yl}-N-(2-hydroxy-ethyl)-2-propyl-benzamide] |  |  | 403 | 97
29 | CCCc1cc(-c2cc(NCCc3c(F)cc(Br)cc3F)ncn2)ccc1C(=O)NCCOC [Example 307, 4-{6-[2-(4-Bromo-2,6-difluoro-phenyl)-ethylamino]-pyrimidin-4-yl}-N-(2-methoxy-ethyl)-2-propyl-benzamide] |  |  | 781 | 219
30 | CCCc1cc(-c2cc(NCCc3c(F)cc(Br)cc3F)ncn2)ccc1C(=O)NCC(C)(C)O [Example 308, 4-{6-[2-(4-Bromo-2,6-difluoro-phenyl)-ethylamino]-pyrimidin-4-yl}-N-(2-hydroxy-2-methyl-propyl)-2-propyl-benzamide] |  |  | 164 | 156
31 | Fc1cc(Br)cc(F)c1CCNc1cc(-c2ccc3nccn3c2)ncn1 [Example 309, [2-(4-Bromo-2,6-difluoro-phenyl)-ethyl]-(6-imidazo[1,2-a]pyridin-6-yl-pyrimidin-4-yl)-amine] |  |  | 875 | 352
32 | OCCOc1ccc(-c2cc(NCCc3c(F)cc(Br)cc3F)ncn2)cc1 [Example 311, 2-(4-{6-[2-(4-Bromo-2,6-difluoro-phenyl)-ethylamino]-pyrimidin-4-yl}-phenoxy)-ethanol] |  |  | 776 | 216
33 | O=C1Cc2cc(-c3cc(NCCc4c(F)cc(Br)cc4F)ncn3)ccc2N1 [Example 312, 5-{6-[2-(4-Bromo-2,6-difluoro-phenyl)-ethylamino]-pyrimidin-4-yl}-1,3-dihydro-indol-2-one] |  |  | 703 | 175
34 | COC(=O)Nc1ccc(-c2cc(NCCc3c(F)cc(Br)cc3F)ncn2)cc1 [Example 313, (4-{6-[2-(4-Bromo-2,6-difluoro-phenyl)-ethylamino]-pyrimidin-4-yl}-phenyl)-carbamic acid methyl ester] |  |  | 333 | 143
